pIC50: −log10 of the molar value.
Tests used:
PC-3 [1] = test: Cytotoxicity against human PC3 cells at 25 uM after 48 hrs by MTT assay relative to control; assay type: functional
PC-3 [2] = test: Cytotoxicity against human PC3 cells at 5 uM after 48 hrs by MTT assay relative to control; assay type: functional
PC-3 [3] = test: Growth inhibition of human PC3 cells after 48 hrs by MTT assay; assay type: functional, cell-based; conditions: PC-3, 48 h

Structure (SMILES)	Activity (PC-3 [1]) [%]	Activity (PC-3 [2]) [%]	pIC50 (PC-3 [3])
O=C(/C=C/c1ccccc1)c1ccc(O)cc1O [2',4'-DIHYDROXYCHALCONE]	66.2	16.6	
O=C(c1ccc(O)cc1O)[C@H]1Cc2ccccc2[C@@H](C(=O)c2ccc(O)cc2O)[C@H]1c1ccccc1	86.3	46.1	
O=C(c1ccc(O)cc1O)[C@H]1[C@H](C(=O)c2ccc(O)cc2O)[C@@H](c2ccccc2)[C@@H]1c1ccccc1	97.6	49.7	5.46
O=C(c1ccc(O)cc1O)[C@@H]1[C@H](C(=O)c2ccc(O)cc2O)[C@@H](c2ccccc2)[C@H]1c1ccccc1	78.8	27.1	
O=C(c1ccc(O)cc1O)[C@@H]1Cc2ccccc2[C@H](C(=O)c2ccc(O)cc2O)[C@@H]1c1ccccc1	73.4	22.3	
O=C(c1ccc(O)cc1O)[C@H]1[C@H](c2ccccc2)[C@@H](C(=O)c2ccc(O)cc2O)[C@@H]1c1ccccc1	76.7	12.8	
O=C(c1ccc(O)cc1O)[C@@H]1[C@@H](C(=O)c2ccc(O)cc2O)[C@H](c2ccccc2)[C@H]1c1ccccc1	96.3	41.2	5.42
O=C(c1ccc(O)cc1O)[C@H]1[C@H](c2ccccc2)[C@H](C(=O)c2ccc(O)cc2O)[C@@H]1c1ccccc1	57.9	12.3	
O=C(c1ccc(O)cc1O)[C@@H]1[C@@H](C(=O)c2ccc(O)cc2O)[C@H](c2ccccc2)[C@@H]1c1ccccc1	75.5	29	
O=C(c1ccc(O)cc1O)[C@H]1[C@H](C(=O)c2ccc(O)cc2O)[C@H](c2ccccc2)[C@@H]1c1ccccc1	87.6	30.7	
O=C(c1ccc(O)cc1O)[C@H]1[C@H](c2ccccc2)[C@H](C(=O)c2ccc(O)cc2O)[C@H]1c1ccccc1	88	29.6	
